# Test results from PMC6321136, “Combined In Vitro Studies and in Silico Target Fishing for the Evaluation of the Biological Activities of Diphylleia cymosa and Podophyllum hexandrum” (Molecules, 2018).
# Like-named read-outs stand apart in the source and are kept apart here.
# Experiments:
# [1] = system: Cytotoxicity, Activators, heat shock response (counterscreen); parameters: method as in PubChem Bioassay AID 743209; conditions: ref PubChem Bioassay AID 743209; cited from earlier work
# Anti-Inflammatory model [2] = system: Anti-Inflammatory model; parameters: method as in PubChem Bioassay AID 438; conditions: ref PubChem Bioassay AID 438; cited from earlier work
# [3] = system: Escherichia coli ATCC 11775; assay: Antibacterial microdilution assay; format: cell-based; conditions: ATCC11775, read-out: E. coli Mean ± SD (percentage of inhibition of microbial growth)
# Method: (§1) Antibacterial susceptibility was performed using the modified microdilution method for bacteria, against Gram-positive (Staphylococcus aureus ATCC 25923 and Bacillus cereus ATCC 11778) and Gram-negative recognized pathogens (Escherichia coli ATCC 11775, Enterohemorrhagic E. coli ATCC 43895-EHEC, Pseudomonas aeruginosa ATCC 10145 and Salmonella choleraesuis subs. choleraesuis sorotype Typhi BM/Panama-TY2).
# (§2) The experiments were performed in 96 well microplates. The extracts and isolated substance solubilized in DMSO (Vetec^TM) at 50 mg/mL were diluted in Mueller Hinton Broth (MHB, Difco) at a concentration of 500 µg/mL. The bacterial isolates, criopreserved at −80 °C were grown in Tryptic Soy Agar (TSA, Acumedia®) plates, at 37 °C for 18–24 h. The inoculum was adjusted in saline solution in a spectrophotometer at 625 nm, to a concentration of 1–5 × 10^8 CFU/mL and then diluted in MHB to 1–5 × 10^5 CFU/mL.
# (§3) Volumes of 100 μL of the inoculum were added to wells containing 100 μL of the extracts at […], in triplicate (one well intended for extract control), resulting in a final concentration of 250 μg/mL. Chloramphenicol at 50 μg/mL and 0.5% DMSO were used as positive and negative controls, respectively. Evaluation of microbial growth was carried out by adding the inoculum to a well containing only MHB. Sterility of the culture medium was also confirmed by incubation in the assay plate. Assays were performed in triplicate. The microplates were incubated at 37 °C for 24 h. As an indicator of microbial growth, 20 μL of 2,3,5-triphenyltetrazolium chloride (TTC, Sigma-Aldrich, St. Louis, MO, USA) at 5 mg/mLwere added to each well. The plates were incubated at 37 °C for 3 h and then the TTC was solubilized with 100 μL of sodium lauryl sulfate solution in isopropanol 7 μg/mL and measured in a microplate reader at 485 nm. The result was expressed as the percentage of inhibition compared with the microbial growth control, and was considered positive for antibacterial activity for those extracts with an inhibition higher than 50%.
# [4] = system: Bacillus cereus ATCC 11778; assay: Antibacterial microdilution assay; format: cell-based; conditions: ATCC11778, read-out: B. cereus Mean ± SD (percentage of inhibition of microbial growth)
# Method: as §1, §2, §3
# [5] = system: Pseudomonas aeruginosa ATCC 10145; assay: Antibacterial microdilution assay; format: cell-based
# Method: as §1, §2, §3
# [6] = system: Staphylococcus aureus ATCC 25923; assay: Antibacterial microdilution assay; format: cell-based; conditions: ATCC25923, read-out: S. aureus Mean ± SD (percentage of inhibition of microbial growth)
# Method: as §1, §2, §3
# [7] = system: Agonist, retinoic acid receptor (RAR); parameters: method as in PubChem Bioassay AID 1159553; conditions: ref PubChem Bioassay AID 1159553; cited from earlier work
# Agonist, p53 = system: Agonist, p53; parameters: method as in PubChem Bioassay AID 651631; conditions: ref PubChem Bioassay AID 651631; cited from earlier work
# [8] = system: ADMET, Cytochrome P450 3A4; parameters: method as in PubChem Bioassay AID 884; conditions: ref PubChem Bioassay AID 884; cited from earlier work
# [9] = system: Activate, aryl hydrocarbon receptor (AhR); parameters: method as in PubChem Bioassay AID 743122; conditions: ref PubChem Bioassay AID 743122; cited from earlier work
# [10] = parameters: method as in Dar et al. [63]; conditions: ref Dar et al. [63]; cited from earlier work
# Anti-Inflammatory model [11] = system: Anti-Inflammatory model; parameters: method as in PubChem Bioassay AID 489033; conditions: ref PubChem Bioassay AID 489033; cited from earlier work
# [12] = target: T1, acetylcholinesterase enzyme (Electropardus electricous type VI-S) (Electrophorus electricus, UniProt O42275); assay: AChE bioautographic assay (TLC); format: biochemical; parameters: key: -: not active; +: slight inhibition; ++++: strong inhibition; conditions: intensity of white bands
# T1 construct: purchased Sigma-Aldrich, St. Louis, MO, USA type VI-S (catalogue number not given)
# Method: The bioautographic assay was performed by thin layer chromatography (TLC) according to the method proposed by Marston, Kissling and Hostettman. The extracts were solubilized in methanol (Merck) at 20 mg/mL, and a portion of 10 μL of this solution was applied on a TLC plate (silica gel 60 F254, Merck, Darmstadt, Germany), which was eluted with CHCl3:MeOH (9:1). The acetylcholinesterase enzyme (Electropardus electricous type VI-S, Sigma-Aldrich, St. Louis, MO, USA) solution was prepared by diluting 1 KU of the enzyme in 30 mL of Tris/HCl buffer, pH 7.8, with the addition of 30 mg of bovine serum albumin (BSA). The enzyme solution was sprayed on the TLC plate and incubated in a humid chamber at 37 °C for 20 min. The substrate solution was prepared using 1-naphthyl acetate (2.5 mg/mL) and Fast Blue B salt (2.5 mg/mL), and sprayed on the TLC plate after the incubation period. […] The result was expressed by the intensity of the white bands observed.
# [13] = system: Cytotoxicity, Agonist, AP-1; parameters: method as in PubChem Bioassay AID 1159525; conditions: ref PubChem Bioassay AID 1159525; cited from earlier work
# Anticancer, Leukemia = system: Anticancer, Leukemia; parameters: method as in PubChem Bioassay AID 1053195; conditions: ref PubChem Bioassay AID 1053195; cited from earlier work
# [14] = system: Enterohemorrhagic E. coli ATCC 43895-EHEC; assay: Antibacterial microdilution assay; format: cell-based, Escherichia coli
# [15] = system: Anti-Inflammatory model (counterscreen); parameters: method as in PubChem Bioassay AID 1318; conditions: ref PubChem Bioassay AID 1318; cited from earlier work
# T1 sequence (O42275 24-633): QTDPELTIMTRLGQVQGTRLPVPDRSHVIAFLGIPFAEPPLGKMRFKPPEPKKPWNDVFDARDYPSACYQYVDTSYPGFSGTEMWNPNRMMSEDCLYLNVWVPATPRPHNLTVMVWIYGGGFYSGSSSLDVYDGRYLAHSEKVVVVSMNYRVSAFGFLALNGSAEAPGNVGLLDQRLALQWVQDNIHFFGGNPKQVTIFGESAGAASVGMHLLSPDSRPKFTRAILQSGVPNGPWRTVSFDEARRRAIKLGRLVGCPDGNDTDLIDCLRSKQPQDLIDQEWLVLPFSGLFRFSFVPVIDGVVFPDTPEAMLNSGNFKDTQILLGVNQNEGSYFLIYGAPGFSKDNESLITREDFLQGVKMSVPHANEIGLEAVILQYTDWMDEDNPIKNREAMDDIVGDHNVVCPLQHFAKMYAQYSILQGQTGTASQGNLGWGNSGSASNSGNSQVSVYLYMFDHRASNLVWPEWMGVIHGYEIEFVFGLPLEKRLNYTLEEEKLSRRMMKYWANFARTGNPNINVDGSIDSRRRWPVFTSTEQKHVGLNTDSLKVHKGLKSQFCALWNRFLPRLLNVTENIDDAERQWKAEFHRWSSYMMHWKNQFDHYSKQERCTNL
structure (smiles),measurement,setting,value
"COc1cc([C@@H]2c3cc4c(cc3[C@H](O)[C@H]3COC(=O)[C@H]23)OCO4)cc(OC)c1OC [Podophyllotoxin, podophyllotoxin]",Exper. Activity,[1],Inactive
same,Exper. Activity,Anti-Inflammatory model [2],Active
same,inhibition at 250 µg/mL,[3],51.6 ± 9.08%
same,inhibition at 250 µg/mL,[4],0%
same,P. aeruginosa Mean ± SD (percentage of inhibition of microbial growth),[5]; 250 µg/mL,No antibacterial activity
same,inhibition at 250 µg/mL,"[5]; Pseudomonas aeruginosa, ATCC10145, read-out: P. aeruginosa Mean ± SD (percentage of inhibition of microbial growth)",30.2 ± 9.39%
same,inhibition at 250 µg/mL,[6],53.3 ± 8.8%
same,Exper. Activity,[7],Inactive
same,Exper. Activity,"Agonist, p53",Inactive
same,Exper. Activity,[8],Active
same,Exper. Activity,[9],Active
same,IC50 TBARS lipid peroxidation,[10],higher than 250 μg/mL
same,Exper. Activity,Anti-Inflammatory model [11],Inactive
same,Inhibition of AChE TLC,[12],-
same,Exper. Activity,[13],Inactive
same,Exper. Activity,"Anticancer, Leukemia",Inactive
same,EHEC E. coli Mean ± SD (percentage of inhibition of microbial growth),[14]; 250 µg/mL,No antibacterial activity
same,inhibition at 250 µg/mL,"[14]; Escherichia coli, ATCC43895, read-out: EHEC E. coli Mean ± SD (percentage of inhibition of microbial growth)",33 ± 7.76%
same,Exper. Activity,[15],Inactive
